Assay results taken from the supplement of paper PMC10307832.

Legend:
Assay in all cases: relative viability (nuclei count vs DMSO), 5 days (fraction); higher = more cells survive
[1] = test system: A-427
Outline: (§1)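 Values are medians from duplicate plates. Each reflects relative viability, defined as the nuclei count of treated wells over that of vehicle wells. Lung cancer cell lines in 1536-well plates were pin-tool dosed one day after seeding with one drug alone or with a fixed anchor-drug dose plus five library-drug doses (not always all listed) in √10 steps, then fixed, stained and imaged at 4× after 5 days.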

[2] = test system: EPLC-272H
Outline: as §1

[3] = test system: HCC-15
Outline: as §1

[4] = test system: LC-2-ad
Outline: as §1

[5] = test system: LK-2
Outline: as §1

[6] = test system: NCI-H1734
Outline: as §1

[7] = test system: NCI-H1793
Outline: as §1

[8] = test system: NCI-H1915
Outline: as §1

[9] = test system: NCI-H1944
Outline: as §1

[10] = test system: NCI-H2009
Outline: as §1

[11] = test system: NCI-H2023
Outline: as §1

[12] = test system: NCI-H2342
Outline: as §1

[13] = test system: NCI-H2347
Outline: as §1

[14] = test system: NCI-H322M
Outline: as §1

[15] = test system: NCI-H358
Outline: as §1

[16] = test system: NCI-H441
Outline: as §1

[17] = test system: NCI-H522
Outline: as §1

[18] = test system: NCI-H647
Outline: as §1

[19] = test system: NCI-H838
Outline: as §1

[20] = test system: RERF-LC-KJ
Outline: as §1

[21] = test system: SW 1573
Outline: as §1

[22] = test system: UMC-11
Outline: as §1

Compound: CN1CCN(CCOc2cc(OC3CCOCC3)c3c(Nc4c(Cl)ccc5c4OCO5)ncnc3c2)CC1 [Saracatinib] + Nc1nc2[nH]cc(CCc3ccc(C(=O)N[C@@H](CCC(=O)O)C(=O)O)cc3)c2c(=O)[nH]1 [Pemetrexed] (partner 0.2 µM)
- relative viability ([1]; first compound 0.02 µM): 0.963
- relative viability ([1]; first compound 0.2 µM): 0.787
- relative viability ([1]; first compound 0.6325 µM): 0.846
- relative viability ([1]; first compound 2 µM): 1.01
- relative viability ([2]; first compound 0.02 µM): 0.334
- relative viability ([2]; first compound 0.2 µM): 0.313
- relative viability ([2]; first compound 0.6325 µM): 0.239
- relative viability ([2]; first compound 2 µM): 0.251
- relative viability ([3]; first compound 0.02 µM): 0.213
- relative viability ([3]; first compound 0.2 µM): 0.225
- relative viability ([3]; first compound 0.6325 µM): 0.219
- relative viability ([3]; first compound 2 µM): 0.222
- relative viability ([4]; first compound 0.02 µM): 0.286
- relative viability ([4]; first compound 0.2 µM): 0.282
- relative viability ([4]; first compound 0.6325 µM): 0.268
- relative viability ([4]; first compound 2 µM): 0.27
- relative viability ([5]; first compound 0.02 µM): 0.32
- relative viability ([5]; first compound 0.2 µM): 0.199
- relative viability ([5]; first compound 0.6325 µM): 0.205
- relative viability ([5]; first compound 2 µM): 0.161
- relative viability ([6]; first compound 0.02 µM): 0.418
- relative viability ([6]; first compound 0.6325 µM): 0.414
- relative viability ([6]; first compound 2 µM): 0.4
- relative viability ([7]; first compound 0.02 µM): 0.947
- relative viability ([7]; first compound 0.2 µM): 0.766
- relative viability ([7]; first compound 0.6325 µM): 0.743
- relative viability ([7]; first compound 2 µM): 0.568
- relative viability ([8]; first compound 0.02 µM): 0.477
- relative viability ([8]; first compound 0.2 µM): 0.4
- relative viability ([8]; first compound 0.6325 µM): 0.501
- relative viability ([8]; first compound 2 µM): 0.481
- relative viability ([9]; first compound 0.02 µM): 0.533
- relative viability ([9]; first compound 0.2 µM): 0.663
- relative viability ([9]; first compound 0.6325 µM): 0.626
- relative viability ([9]; first compound 2 µM): 0.429
- relative viability ([10]; first compound 0.02 µM): 1.01
- relative viability ([10]; first compound 0.2 µM): 0.962
- relative viability ([10]; first compound 0.6325 µM): 0.993
- relative viability ([10]; first compound 2 µM): 1.05
- relative viability ([11]; first compound 0.02 µM): 0.229
- relative viability ([11]; first compound 0.2 µM): 0.189
- relative viability ([11]; first compound 0.6325 µM): 0.202
- relative viability ([11]; first compound 2 µM): 0.191
- relative viability ([12]; first compound 0.02 µM): 0.83
- relative viability ([12]; first compound 0.2 µM): 0.673
- relative viability ([12]; first compound 0.6325 µM): 0.789
- relative viability ([12]; first compound 2 µM): 0.84
- relative viability ([13]; first compound 0.02 µM): 0.435
- relative viability ([13]; first compound 0.2 µM): 0.421
- relative viability ([13]; first compound 0.6325 µM): 0.464
- relative viability ([13]; first compound 2 µM): 0.429
- relative viability ([14]; first compound 0.02 µM): 0.574
- relative viability ([14]; first compound 0.2 µM): 0.55
- relative viability ([14]; first compound 0.6325 µM): 0.505
- relative viability ([14]; first compound 2 µM): 0.32
- relative viability ([15]; first compound 0.02 µM): 0.193
- relative viability ([15]; first compound 0.2 µM): 0.166
- relative viability ([15]; first compound 0.6325 µM): 0.156
- relative viability ([15]; first compound 2 µM): 0.151
- relative viability ([16]; first compound 0.02 µM): 0.28
- relative viability ([16]; first compound 0.2 µM): 0.238
- relative viability ([16]; first compound 0.6325 µM): 0.316
- relative viability ([16]; first compound 2 µM): 0.272
- relative viability ([17]; first compound 0.02 µM): 1.15
- relative viability ([17]; first compound 0.2 µM): 0.918
- relative viability ([17]; first compound 0.6325 µM): 0.735
- relative viability ([17]; first compound 2 µM): 0.747
- relative viability ([18]; first compound 0.02 µM): 0.191
- relative viability ([18]; first compound 0.2 µM): 0.148
- relative viability ([18]; first compound 0.6325 µM): 0.159
- relative viability ([18]; first compound 2 µM): 0.138
- relative viability ([19]; first compound 0.02 µM): 0.254
- relative viability ([19]; first compound 0.2 µM): 0.204
- relative viability ([19]; first compound 0.6325 µM): 0.248
- relative viability ([19]; first compound 2 µM): 0.227
- relative viability ([20]; first compound 0.02 µM): 0.477
- relative viability ([20]; first compound 0.2 µM): 0.463
- relative viability ([20]; first compound 0.6325 µM): 0.47
- relative viability ([20]; first compound 2 µM): 0.441
- relative viability ([21]; first compound 0.02 µM): 0.823
- relative viability ([21]; first compound 0.2 µM): 0.899
- relative viability ([21]; first compound 0.6325 µM): 0.794
- relative viability ([21]; first compound 2 µM): 0.767
- relative viability ([22]; first compound 0.02 µM): 0.809
- relative viability ([22]; first compound 0.2 µM): 0.699
- relative viability ([22]; first compound 0.6325 µM): 0.898
- relative viability ([22]; first compound 2 µM): 0.607
